According to the supplement of paper PMC4862054:

Legend:
Conditions in all cases: incubation time: 72 h
MDA-MB-436 [1] = experiment: normalised response (% of control), CellTox Green; higher = less cell death (100 = DMSO, 0 = benzethonium chloride kill control)
Procedure, shortened: (§1)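 Breast cancer cell lines were exposed for 72 h in 384-well plates to compound at 5 concentrations, 10-fold apart, covering a 10,000-fold range fixed for each compound. Plates were read for CellTox Green fluorescence and CellTiter-Glo luminescence and normalised to 0.1 % DMSO (100) and a positive kill control (0). Each value is the normalised signal at one concentration of the series.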

CAL-51 [2] = experiment: as above
Procedure, shortened: as §1

BT-549 [3] = experiment: as above
Procedure, shortened: as §1

HCC1143 [4] = experiment: as above
Procedure, shortened: as §1

CAL-85-1 [5] = experiment: as above
Procedure, shortened: as §1

MFM-223 [6] = experiment: as above
Procedure, shortened: as §1

DU-4475 [7] = experiment: as above
Procedure, shortened: as §1

BT-474 [8] = experiment: as above
Procedure, shortened: as §1

MDA-MB-453 [9] = experiment: as above
Procedure, shortened: as §1

MDA-MB-231 [10] = experiment: as above
Procedure, shortened: as §1

CAL-148 [11] = experiment: as above
Procedure, shortened: as §1

MCF-10A [12] = experiment: as above
Procedure, shortened: as §1

HCC1937 [13] = experiment: as above
Procedure, shortened: as §1

Hs578T [14] = experiment: as above
Procedure, shortened: as §1

CAL-120 [15] = experiment: as above
Procedure, shortened: as §1

HCC1599 [16] = experiment: as above
Procedure, shortened: as §1

MDA-MB-468 [17] = experiment: as above
Procedure, shortened: as §1

MDA-MB-436 [18] = experiment: normalised response (% of control), CellTiter-Glo; higher = more viable cells (100 = DMSO, 0 = benzethonium chloride kill control)
Description: (§2)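 DSRT, 72 h incubation, CellTox Green / CellTiter-Glo readout. Signal is normalised to DMSO and benzethonium chloride controls. Value is the normalised response at the highest dose.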

CAL-51 [19] = experiment: as above
Description: as §2

BT-549 [20] = experiment: as above
Description: as §2

HCC1143 [21] = experiment: as above
Description: as §2

CAL-85-1 [22] = experiment: as above
Description: as §2

MFM-223 [23] = experiment: as above
Description: as §2

HDQ-P1 [24] = experiment: as above
Description: as §2

DU-4475 [25] = experiment: as above
Description: as §2

BT-474 [26] = experiment: as above
Description: as §2

MDA-MB-453 [27] = experiment: as above
Description: as §2

MDA-MB-231 [28] = experiment: as above
Description: as §2

CAL-148 [29] = experiment: as above
Description: as §2

MCF-10A [30] = experiment: as above
Description: as §2

HCC1937 [31] = experiment: as above
Description: as §2

Hs578T [32] = experiment: as above
Description: as §2

SK-BR-3 = experiment: as above
Description: as §2

CAL-120 [33] = experiment: as above
Description: as §2

HCC1599 [34] = experiment: as above
Description: as §2

MDA-MB-468 [35] = experiment: as above
Description: as §2

HDQ-P1 [36] = experiment: normalised response (% of control), CellTox Green; higher = less cell death (100 = DMSO, 0 = benzethonium chloride kill control)
Procedure, shortened: as §1

| SMILES | normalised response (MDA-MB-436 [1]) | normalised response (CAL-51 [2]) | normalised response (BT-549 [3]) | normalised response (HCC1143 [4]) | normalised response (CAL-85-1 [5]) | normalised response (MFM-223 [6]) | normalised response (DU-4475 [7]) | normalised response (BT-474 [8]) | normalised response (MDA-MB-453 [9]) | normalised response (MDA-MB-231 [10]) | normalised response (CAL-148 [11]) | normalised response (MCF-10A [12]) | normalised response (HCC1937 [13]) | normalised response (Hs578T [14]) | normalised response (CAL-120 [15]) | normalised response (HCC1599 [16]) | normalised response (MDA-MB-468 [17]) | normalised response (MDA-MB-436 [18]) | normalised response (CAL-51 [19]) | normalised response (BT-549 [20]) | normalised response (HCC1143 [21]) | normalised response (CAL-85-1 [22]) | normalised response (MFM-223 [23]) | normalised response (HDQ-P1 [24]) | normalised response (DU-4475 [25]) | normalised response (BT-474 [26]) | normalised response (MDA-MB-453 [27]) | normalised response (MDA-MB-231 [28]) | normalised response (CAL-148 [29]) | normalised response (MCF-10A [30]) | normalised response (HCC1937 [31]) | normalised response (Hs578T [32]) | normalised response (SK-BR-3) | normalised response (CAL-120 [33]) | normalised response (HCC1599 [34]) | normalised response (MDA-MB-468 [35]) | normalised response (HDQ-P1 [36]) |
| --- | --- | --- | --- | --- | --- | --- | --- | --- | --- | --- | --- | --- | --- | --- | --- | --- | --- | --- | --- | --- | --- | --- | --- | --- | --- | --- | --- | --- | --- | --- | --- | --- | --- | --- | --- | --- | --- |
| CC(=O)O[C@]1(C(C)=O)CC[C@H]2[C@@H]3C=C(C)C4=CC(=O)CC[C@]4(C)[C@H]3CC[C@@]21C [Megestrol acetate] (10000 nM) | 88.3% | 111% | 105% | 112% | 109% | 103% | 97.6% | 99.2% | 99.8% | 123% | 99.9% | 102% | 84% | 58.5% | 96.6% | 95.9% | 176% | 96% | 123% | 107% | 102% | 97.7% | 91.7% | 102% | 93.9% | 111% | 91.3% | 124% | 88.7% | 135% | 98% | 94.5% | 89% | 90% | 99.5% | 95.9% | – |
| CCN1CCN(c2ccc(Nc3cc(N(C)C(=O)Nc4c(Cl)c(OC)cc(OC)c4Cl)ncn3)cc2)CC1 [NVP-BGJ398] (1000 nM) | 102% | 105% | 84.6% | 105% | 119% | 94.1% | 97.7% | 102% | 81.6% | – | 98.1% | 73.2% | 52.5% | 115% | 89.3% | 100% | 71.5% | 92.7% | 128% | 75.9% | 93.6% | 101% | 50.3% | 99.8% | 100% | 91.3% | 105% | 96.2% | 96.5% | 101% | 95.7% | 86.2% | 97.7% | 71.1% | 98.7% | 97.2% | 101% |
| O=C(c1ccc(C(=O)N2CCC(N3CCCC3)CC2)c(Nc2ccccc2)c1)N1CCC(N2CCCC2)CC1 [UNC1215] (30000 nM) | 93.4% | 106% | 86.1% | – | 116% | 105% | 98.2% | 102% | 102% | 88.8% | 101% | 82.8% | 98.5% | 84.2% | 98.6% | 94.3% | 135% | 93.2% | 99.6% | 98% | 96.5% | 92.2% | 95.1% | 97.7% | 94.8% | 101% | 99.8% | 93.9% | 93.8% | 95.4% | 94.2% | 99.6% | 94% | 107% | 96% | 95% | 50.2% |
